Experimental findings from article PMC6132687, “Stem cells are the most sensitive screening tool to identify toxicity of GATA4-targeted novel small-molecule compounds” (Archives of Toxicology, 2018) are described below.

Series [1] relates to mESC derivatives from day 5 embryoid bodies (D5EBs). The experiment in a line: MTT assay in D5EBs. It counts as cell-based, mouse. The settings on record: 24 h. The protocol: (§1) The cells were exposed to the test compounds for 24 h and cytotoxicity was quantified with MTT and LDH assays as described previously (Talman et al. [2011]). For the determination of cell membrane integrity, 50 µl of medium from each well was transferred onto a new 96-well plate followed by addition of 50 µl of substrate solution containing 1.3 mM β-nicotinamide adenine dinucleotide, 660 µM iodonitrotetrazolium, 54 mM L(+)-lactic acid, 280 µM phenazine methosulphate and 0.2 M Tris–HCl (pH 8.0). After a 30-min incubation, the reaction was stopped by adding 50 µl of 1 M acetic acid to each well and absorbance was measured at 490 nm using Victor2 plate reader (PerkinElmer, Turku, Finland). Spontaneous LDH release was measured from untreated cells, maximal LDH release from cells lysed with 0.9% Triton X-100 and background absorbance was measured from wells without cells. After background extraction, cytotoxicity was calculated as follows: cytotoxicity (%) = [(sample − spontaneous LDH release)/(maximal LDH release − spontaneous LDH release)] × 100. For quantification of metabolic activity, 3-(4,5-dimethylthiazol-2-yl)-2,5-diphenyltetrazolium bromide (MTT) was added to the cells at a final concentration of 0.5 mg/ml followed by 2 h incubation in cell culture conditions. The medium was then aspirated and formazan crystals were solubilized in DMSO. Absorbance was measured at 550 nm and absorbance at 650 nm was subtracted as background.
Mouse embryonic stem cells (mESCs), embryoid bodies (EBs), and primary mouse embryonic fibroblasts (MEFs) were used for toxicity experiments. E14 mESCs were cultured in feeder-free conditions on plates coated with 0.1% gelatin in DMEM with 15% FBS, GlutaMax, MEM non-essential amino acids, 2-mercaptoethanol, and leukemia inhibitory factor (LIF). For toxicity assays, the cells were dissociated with TrypLe and plated at 5,000 cells/well in gelatin-coated 96-well plates 24 hours prior to compound exposures. To induce differentiation of mESCs, cells were plated on day 0 in 20 µl hanging drops at 25,000 cells/ml in inverted V-bottom plates in DMEM with 20% FBS and with all above supplements except LIF. On day 2 medium was added to EBs, and the EBs were dissociated with TrypLe and plated at 5,000 cells/well in gelatin-coated 96-well plates on day 5 and exposed to test compounds 24 later. Primary MEFs were cultured on 0.1% gelatin-coated plates in DMEM with 10% […]
(§2) 1640 without glucose with B-27 supplement in order to purify cardiomyocytes. From day 15 onwards the cells were maintained in RPMI 1640 supplemented with B-27 (RB+ins). Beating hiPSC-CMs were dissociated between days 15 and 22 by incubating them in cell dissociation solution containing 40% enzyme-free cell dissociation buffer, 40% RPMI 1640 and 20% trypsin-EDTA (final trypsin concentration 0.01%) for 7–8 min, whereafter the cells were collected and trypsin was inactivated in RB+ins supplemented with 10% FBS. After centrifugation the cells were suspended in RB+ins with 10% FBS containing 10 µM ROCK inhibitor and seeded at 15,000 cells/well (cytotoxicity assays) or 20,000 cells/well (high content analysis) in gelatin-coated 96-well plates. The cells were let to attach for 2 days at 37 °C in standard conditions, whereafter the compounds were added in RB+ins. In general, the differentiation yielded an almost pure (>95%) cardiomyocyte culture.
(§3) Syntheses and characterization of compounds
Materials and general procedures. […]
(In general: Tetrazolium dyes change colour on reduction, which living cells bring about.)

The subject of another series is mESCs. The series can be described thus: MTT assay in mESCs. It counts as cell-based, mouse. The note with it: 24 h; for reduction in cell viability: 30 µM. The protocol:
as §1
Mouse embryonic stem cells (mESCs), embryoid bodies (EBs), and primary mouse embryonic fibroblasts (MEFs) were used for toxicity experiments. E14 mESCs were cultured in feeder-free conditions on plates coated with 0.1% gelatin in DMEM with 15% FBS, GlutaMax, MEM non-essential amino acids, 2-mercaptoethanol, and leukemia inhibitory factor (LIF). For toxicity assays, the cells were dissociated with TrypLe and plated at 5,000 cells/well in gelatin-coated 96-well plates 24 hours prior to compound exposures. […]
as §2, §3
Materials and general procedures. All reagents were acquired from Sigma-Aldrich (Schnelldorf, Germany) and Enamine (Kiev, Ukraine), and were used without further purification. All reactions in anhydrous solvents were conducted in oven-dried glassware under anhydrous argon. Thin-layer chromatography (TLC) was performed using Silica Gel 60 F254 (Merck) and Silica Gel 60 NH2 F254s aluminium sheets (Merck), visualized by UV illumination and stained with ninhydrin in EtOH (1.5% w/v). […] The 1H and 13C NMR spectra were recorded on a Varian

Series [2] has as its system stem cell and progenitor cell viability. The experiment in a line: Toxicity classification from MTT screening across cell types. The note with it: based on effects on stem cell and progenitor cell viability. The protocol: as §1
When comparing the effects of different compounds within each individual cell type, the compounds can be grouped into two main classes: toxic (3i-1000, 3i-1120, 3i-1148 and 3i-1229) and non-toxic (3i-1047, 3i-1051, 3i-1165, and 3i-1228) compounds. Based on the hiPSC toxicity data, 3i-1148 can be considered as the most toxic compound with an IC50 of 0.30 µM (Fig. 5b).

For `CCN(CC)c1ccc(NC(=O)c2c(C)noc2-c2cc(C)on2)cc1` [3i-1047], the reduction in viability in series [1] (30 µM) is listed as 38–45%. For the same compound, the “reduction in cell viability” value in the series on mESCs is 38–45%. The “toxicity class (toxic / non-toxic)” value in series [2] is “non-toxic”.
As for `CCC(=O)N(Cc1ccc(N(CC)CC)cc1)c1c(-c2ccccc2)noc1C` [3i-1120], the “sensitivity of cell type to compound (viability)” value (“sensitivity of cell type” for short) (in series [1]; in the series with mESCs) was “sensitive” in each case. Also, the “toxicity class (toxic / non-toxic)” value in series [2] is on record as “toxic”.
With `COc1ccc(-c2cc(N)nn2C(=O)c2c(-c3ccccc3)noc2C)cc1` [3i-1229], the “sensitivity of cell type” value (in series [1]; in the series on mESCs) was “sensitive” in each case. Besides, in series [2], the “toxicity class (toxic / non-toxic)” value is “toxic”.
In the case of `CCN(CC)c1ccc(NC(=O)c2c(-c3ccccc3)noc2C)cc1` [3i-1000], the “reduction in metabolic activity” value in series [1] (at ≥ 10 µM) is “moderate, but not statistically significant”. Moreover, the “reduction in cell viability” value with mESCs was 56%. Besides, in series [2], the “toxicity class (toxic / non-toxic)” value is recorded as “toxic”.
In the case of `CCN(CC)c1ccc(NC(=O)c2cc(C)oc2-c2ccccc2)cc1` [3i-1148], the “sensitivity of cell type” value (in series [1]; in the series on mESCs) was “sensitive” in each case. In addition, the “toxicity class (toxic / non-toxic)” value in series [2] is “toxic”.
